The NIST ThermoML archive (doi:10.1021/je800908h)

Experiment: mn = molality of the nth substance listed, in mol/kg
Details: 101 kPa, Liquid, Linear variable-path acoustic interferometer

C[N+](C)(C)C.[Br-] [tetramethylammonium bromide] + O
speed of sound [m/s]
Details | 283.15 K | 298.15 K | 318.15 K | 338.15 K
m1 = 0.05 | 1451 | 1499.7 | 1538.7 | 1555.6
m1 = 0.075 | 1452.9 | 1500.3 | 1540 | 1556.2
m1 = 0.1 | 1455 | 1502.5 | 1541.1 | 1556.9
m1 = 0.2 | 1462.1 | 1508.1 | 1545.8 | 1560.9
m1 = 0.3 | 1469.5 | 1513.7 | 1550.4 | 1564.6
m1 = 0.5 | 1483.1 | 1524.7 | 1559.3 | 1571
m1 = 0.75 | 1499.8 | 1537.9 | 1569.3 | 1579.2
m1 = 1 | 1515.7 | 1550.8 | 1578.6 | 1587.3
m1 = 1.5 | 1544.7 | 1575.1 | 1596.6 | 1602
m1 = 2 | 1571.1 | 1597.2 | 1613.1 | 1615.7
m1 = 2.5 | 1595.4 | 1617 | 1628.8 | 1628.9
m1 = 3 | 1617.4 | 1633.7 | 1644.7 | 1641.3

[2H]O[2H] [water-d2] + CCCC[N+](CCCC)(CCCC)CCCC.[Br-]
speed of sound [m/s]
Details | 283.15 K | 298.15 K | 318.15 K | 338.15 K
m2 = 0.05 | 1366.8 | 1414 | 1451.5 | –
m2 = 0.075 | 1375.9 | 1421.1 | 1456.5 | 1470.5
m2 = 0.1 | 1384.4 | – | 1461.4 | 1474.3
m2 = 0.2 | 1419.1 | 1453.9 | 1479.9 | 1486.6
m2 = 0.3 | 1450.2 | 1478.2 | – | 1498.1
m2 = 0.5 | 1506 | – | 1525.8 | 1518.2
m2 = 0.75 | 1562.5 | 1562.4 | 1554.8 | 1536.6
m2 = 1 | 1605.4 | 1594.2 | 1576.2 | 1550.2
m2 = 1.5 | 1658.6 | 1634.9 | 1601 | 1563.5
m2 = 2 | 1680.5 | 1652.1 | 1610 | 1566.4
m2 = 2.5 | 1686.3 | 1657 | 1611.3 | 1563.7
m2 = 3 | 1688.9 | 1661.4 | 1615.2 | 1564

[2H]O[2H] [water-d2] + C[N+](C)(C)C.[Br-]
speed of sound [m/s]
Details | 283.15 K | 298.15 K | 318.15 K | 338.15 K
m2 = 0.05 | 1352 | 1403 | 1443.9 | 1462.3
m2 = 0.075 | 1354.7 | 1405.2 | 1445.4 | 1463.6
m2 = 0.1 | 1357.5 | 1407.4 | 1447.1 | 1465.1
m2 = 0.2 | 1366.7 | 1414.7 | 1452.9 | 1469.8
m2 = 0.3 | 1376.5 | 1422.2 | 1458.6 | 1474.5
m2 = 0.5 | 1393.7 | 1436.4 | 1469.8 | 1484.1
m2 = 0.75 | 1414.4 | 1453.8 | 1483.7 | 1495.7
m2 = 1 | 1433.4 | 1470.2 | – | 1506.9
m2 = 1.5 | 1469.8 | 1500.5 | 1521.2 | 1527.4
m2 = 2 | 1502.4 | 1528 | 1543.6 | 1546.4
m2 = 2.5 | 1532.1 | 1552.9 | 1564.3 | 1564.2
m2 = 3 | 1560.4 | 1575.5 | 1583.5 | 1580.8

CCCC[N+](CCCC)(CCCC)CCCC.[Br-] [tetrabutylammonium bromide] + O
speed of sound [m/s]
Details | 283.15 K | 298.15 K | 318.15 K | 338.15 K
m1 = 0.05 | 1463 | 1508.4 | 1544.6 | 1558.6
m1 = 0.075 | 1470.4 | 1514.2 | 1548.4 | 1561.2
m1 = 0.1 | 1477.8 | 1520.2 | 1552.9 | 1564.2
m1 = 0.2 | 1506.2 | 1541.4 | 1567.4 | 1573.6
m1 = 0.3 | 1532.5 | 1561 | 1580.7 | 1582.4
m1 = 0.5 | 1579 | 1596.3 | 1604.7 | 1597
m1 = 0.75 | 1628.2 | 1632.7 | 1627.3 | 1610.3
m1 = 1 | 1667.1 | 1661.2 | 1644.1 | 1619.5
m1 = 1.5 | 1718.2 | 1697.4 | 1663.3 | 1626.6
m1 = 2 | 1743.4 | 1713.7 | 1669.5 | 1625
m1 = 2.5 | 1752.2 | 1718 | 1668.5 | 1619.5
m1 = 3 | 1753.9 | 1717.6 | 1668.3 | 1615.4
